We go through 20 compounds from PubChem BioAssay AID330 (DTP/NCI, 2004).

Values joined by “and” are separate entries in the source; they are usually repeats but may differ in a detail not shown here. Equal entries are not always repeated. Toxic doses and inconclusive results are not listed.

In this assay the test system is P388 leukemia ip, CD2F1 mice, survival T/C. Put plainly: NCI In Vivo Anticancer Drug Screen. Data for tumor model P388 Leukemia (intraperitoneal) in CD2F1 (CDF1) mice. Particulars: endpoint: median survival time, higher = longer survival. In short, it runs like this:
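Mice carrying the transplanted tumor received test compound or vehicle. Survival was recorded in each group, and the value is the treated-group measurement divided by that of the vehicle-treated control group.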

Where [1] appears, read: dose: 100.0 mg/kg/injection, schedule: Q04DX003 (ip), vehicle: saline.
Where [2] appears, read: dose: 200.0 mg/kg/injection, schedule: Q04DX003 (ip), vehicle: saline.
Setting [3] is: dose: 400.0 mg/kg/injection, schedule: Q04DX003 (ip), vehicle: saline.
Setting [4] is: dose: 50.0 mg/kg/injection, schedule: Q01DX009 (ip), vehicle: saline with Tween-80.
The mark [5] stands for this setting: dose: 100.0 mg/kg/injection, schedule: Q01DX009 (ip), vehicle: saline with Tween-80.
The mark [6] stands for this setting: dose: 100.0 mg/kg/injection, schedule: Q04DX003 (ip), vehicle: saline with Tween-80.
[7] abbreviates: dose: 200.0 mg/kg/injection, schedule: Q01DX009 (ip), vehicle: saline with Tween-80.
The mark [8] stands for this setting: dose: 200.0 mg/kg/injection, schedule: Q04DX003 (ip), vehicle: saline with Tween-80.

In the case of `CCN(CC)SC(=S)SN(CC)CC`, the T/C (dose: 50.0 mg/kg/injection, schedule: Q04DX003 (ip), vehicle: saline) is 98 % of control; the T/C under setting [1] was 96 % of control; the T/C under setting [2] was 98 % of control; the T/C under setting [3] is 104 % of control.
In the case of `C/C(=N\NC(=O)c1ccncc1)c1cccc(/C(C)=N/NC(=O)c2ccncc2)n1.O=S(=O)([O-])[O-].[Fe+2]`, the T/C runs as follows: (dose: 12.5 mg/kg/injection, schedule: Q01DX005 (ip), vehicle: saline with Tween-80) 97 % of control; (dose: 25.0 mg/kg/injection, schedule: Q01DX005 (ip), vehicle: saline with Tween-80) 100 % of control; (dose: 50.0 mg/kg/injection, schedule: Q01DX005 (ip), vehicle: saline with Tween-80) 87 % of control and 95 % of control.
With `N=C=S.O=NO.O=N[O-].[Co+3].[NH-]CC[NH-].[NH-]CC[NH-]`, the T/C was 105 % of control (dose: 13.0 mg/kg/injection, schedule: Q01DX009 (ip), vehicle: saline); 113 % of control (dose: 25.0 mg/kg/injection, schedule: Q01DX009 (ip), vehicle: saline); 103 % of control (dose: 50.0 mg/kg/injection, schedule: Q01DX009 (ip), vehicle: saline).
In the case of `c1ccc(-c2nnn(CCCN3CCOCC3)n2)cc1`, the T/C is, setting by setting: (dose: 100.0 mg/kg/injection, schedule: Q01DX001 (ip), vehicle: Klucel (hydroxypropylcellulose) (HPC)) 100 % of control; (dose: 200.0 mg/kg/injection, schedule: Q01DX001 (ip), vehicle: Klucel (hydroxypropylcellulose) (HPC)) 97 % of control; (dose: 400.0 mg/kg/injection, schedule: Q01DX001 (ip), vehicle: Klucel (hydroxypropylcellulose) (HPC)) 102 % of control.
Regarding `CCOc1nc(N)nc(C)c1N=Nc1ccc(O)cc1`, the T/C is 100 % of control (dose: 60.0 mg/kg/injection, schedule: Q01DX005 (ip), vehicle: saline); 99 % of control (dose: 120.0 mg/kg/injection, schedule: Q01DX005 (ip), vehicle: saline); 96 % of control (dose: 240.0 mg/kg/injection, schedule: Q01DX005 (ip), vehicle: saline).
Turning to `Cc1ncc(C(=O)c2cc(Cl)ccc2O)cn1`, the T/C runs as follows: under setting [1], 100 % of control; under setting [2], 110 % of control; under setting [3], 100 % of control.
Regarding `COC(=O)c1c([As](C)C)n[n]([Sn]([CH3])([CH3])[CH3])c1C(=O)OC`, the T/C by setting is: (dose: 6.25 mg/kg/injection, schedule: Q04DX003 (ip), vehicle: saline) 88 % of control; (dose: 12.5 mg/kg/injection, schedule: Q04DX003 (ip), vehicle: saline) 99 % of control.
As for `CC(C)Sc1ncnc2nc[nH]c12`, the T/C runs as follows: under setting [4], 100 % of control; under setting [5], 104 % of control; under setting [6], 95 % of control; under setting [7], 118 % of control; under setting [8], 86 % of control.
`CCCCCC1([N+](=O)[O-])CN(C)CC2CCCCN2C1` (configuration not stated): the T/C reads like this: (dose: 100.0 mg/kg/injection, schedule: Q04DX002 (ip), vehicle: saline) 102 % of control; (dose: 200.0 mg/kg/injection, schedule: Q04DX002 (ip), vehicle: saline) 102 % of control.
As for `CS(=O)(=O)NC1CC(=O)N(Cc2ccccc2)C1=O` (configuration not stated), the T/C is 91 % of control (dose: 25.0 mg/kg/injection, schedule: Q01DX005 (ip), vehicle: saline); 99 % of control (dose: 50.0 mg/kg/injection, schedule: Q01DX005 (ip), vehicle: saline); 105 % of control (dose: 100.0 mg/kg/injection, schedule: Q01DX005 (ip), vehicle: saline).
Turning to `COc1c(CC(O)C(C)(C)O)c(=O)n(C)c2ccccc12` (configuration not stated), the T/C was 102 % of control (dose: 4.5 mg/kg/injection, schedule: Q01DX005 (ip), vehicle: Klucel (hydroxypropylcellulose) (HPC)); 98 % of control (dose: 9.0 mg/kg/injection, schedule: Q01DX005 (ip), vehicle: Klucel (hydroxypropylcellulose) (HPC)); 90 % of control (dose: 18.0 mg/kg/injection, schedule: Q01DX005 (ip), vehicle: Klucel (hydroxypropylcellulose) (HPC)); 93 % of control (dose: 36.0 mg/kg/injection, schedule: Q01DX005 (ip), vehicle: Klucel (hydroxypropylcellulose) (HPC)).
With `[O-]c1n[n+](Cc2ccc(Br)cc2)no1`, the T/C was 96 % of control (dose: 50.0 mg/kg/injection, schedule: Q04DX003 (ip), vehicle: Klucel (hydroxypropylcellulose) (HPC)); 100 % of control (dose: 100.0 mg/kg/injection, schedule: Q04DX003 (ip), vehicle: Klucel (hydroxypropylcellulose) (HPC)); 110 % of control (dose: 200.0 mg/kg/injection, schedule: Q04DX003 (ip), vehicle: Klucel (hydroxypropylcellulose) (HPC)).
Take `O=C(Nc1nn[nH]n1)c1nc(-c2ccccc2)cc(=O)[nH]1`: the T/C reads like this: (dose: 60.0 mg/kg/injection, schedule: Q01DX005 (ip), vehicle: saline with Tween-80) 101 % of control; (dose: 120.0 mg/kg/injection, schedule: Q01DX005 (ip), vehicle: saline with Tween-80) 101 % of control; (dose: 240.0 mg/kg/injection, schedule: Q01DX005 (ip), vehicle: saline with Tween-80) 86 % of control.
On to `CSc1cc(=O)n2c3ccccc3c3ccnc1c32`, for which the T/C (dose: 2.5 mg/kg/injection, schedule: Q01DX009 (ip), vehicle: saline with Tween-80) is 100 % of control and 120 % of control; the T/C (dose: 5.0 mg/kg/injection, schedule: Q01DX009 (ip), vehicle: saline with Tween-80) was 116 % of control; the T/C (dose: 10.0 mg/kg/injection, schedule: Q01DX009 (ip), vehicle: saline with Tween-80) was 156 % of control.
For `O=C1C(=Nc2ccccc2)Cc2ccccc21`, the T/C was 100 % of control under setting [6]; 96 % of control under setting [8]; 100 % of control (dose: 400.0 mg/kg/injection, schedule: Q04DX003 (ip), vehicle: saline with Tween-80).
Turning to `CCOC(OCC)C(=O)NNS(=O)(=O)c1ccc(C)cc1`, the T/C by setting is: (dose: 12.5 mg/kg/injection, schedule: Q01DX009 (ip), vehicle: other) 105 % of control; (dose: 25.0 mg/kg/injection, schedule: Q01DX009 (ip), vehicle: other) 106 % of control; (dose: 50.0 mg/kg/injection, schedule: Q01DX009 (ip), vehicle: other) 100 % of control; (dose: 100.0 mg/kg/injection, schedule: Q01DX009 (ip), vehicle: other) 99 % of control; (dose: 200.0 mg/kg/injection, schedule: Q01DX009 (ip), vehicle: other) 90 % of control.
In the case of `COc1cc(NS(C)(=O)=O)ccc1Nc1c2ccc([N+](=O)[O-])cc2nc2c(C)cccc12`, the T/C is 272 % of control (dose: 3.0 mg/kg/injection, schedule: Q01DX009 (ip), vehicle: saline with Tween-80); 181 % of control (dose: 3.0 mg/kg/injection, schedule: Q04DX003 (ip), vehicle: saline with Tween-80); 100 % of control (dose: 6.0 mg/kg/injection, schedule: Q01DX009 (ip), vehicle: saline with Tween-80); 209 % of control (dose: 6.0 mg/kg/injection, schedule: Q04DX003 (ip), vehicle: saline with Tween-80); 218 % of control (dose: 7.9 mg/kg/injection, schedule: Q04DX003 (ip), vehicle: saline with Tween-80); 181 % of control and 231 % of control (dose: 12.0 mg/kg/injection, schedule: Q04DX003 (ip), vehicle: saline with Tween-80).
Regarding `CNC(=S)N(C1CCCCC1)C1CCCCC1`, the T/C under setting [4] is 103 % of control, the T/C under setting [5] was 105 % of control and the T/C under setting [7] was 100 % of control.
In the case of `Cc1ccc(C(=O)CC[N+](C)(C)C)cc1`, the T/C was 109 % of control (dose: 3.13 mg/kg/injection, schedule: Q01DX009 (ip), vehicle: saline); 113 % of control (dose: 6.25 mg/kg/injection, schedule: Q01DX009 (ip), vehicle: saline); 109 % of control (dose: 12.5 mg/kg/injection, schedule: Q01DX009 (ip), vehicle: saline).
Regarding `CN(C)c1ccc(-c2c3ccccc3nc3ccccc23)cc1`, the T/C (dose: 12.5 mg/kg/injection, schedule: Q01DX009 (ip), vehicle: saline with Tween-80) is 90 % of control; the T/C (dose: 25.0 mg/kg/injection, schedule: Q01DX009 (ip), vehicle: saline with Tween-80) is 90 % of control; the T/C under setting [4] was 100 % of control.
